Reference: the supplement of paper PMC10627819

Columns and labels:
[1] = test system: S. aureus DSM 20231; test: Bliss interaction score (quartile over a dose matrix) (fitness difference); higher = more antagonism (negative = synergy)
Method in brief: (§1)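 The Bliss score is observed minus expected fitness, where expected fitness is the product of the single-drug fitness values inferred from the combination data. Fitness is the OD595 at the onset of stationary phase over the plate's robust no-drug mean, capped at 1. Scores are summarised by quartiles over technical, biological and donor/recipient replicates.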

[2] = test system: S. aureus Newman; test: as above
Method in brief: as §1

[3] = test system: B. subtilis 168; test: as above
Method in brief: as §1

[4] = test system: S. pneumoniae D39V; test: as above
Method in brief: as §1

[5] = test system: S. aureus DSM 20231; test: fitness (endpoint OD595 vs no drug) (fraction); higher = more growth
Method in brief: (§2)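 Fitness compares growth at the stationary-phase transition with the robust mean of no-drug control wells, as a ratio of optical densities. The ratio is capped at 1. Wells of 384-well plates held 30 µl, or 55 µl for S. pneumoniae, inoculated at OD595 0.01. Readings at OD595 every 30 min for 14 h at 37 °C were corrected against the first reading.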

[6] = test system: S. aureus Newman; test: as above
Method in brief: as §2

[7] = test system: S. pneumoniae D39V; test: as above
Method in brief: as §2
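Wherever Bliss interaction score (quartile over a dose matrix) is given: first quartile when negative (synergy) and third quartile when positive (antagonism).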
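Wherever fitness (endpoint OD595 vs no drug) is given: OD595 on entry to stationary phase over no-drug wells; at most 1.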

CO/N=C(\C(=O)N[C@@H]1C(=O)N2C(C(=O)[O-])=C(C[N+]3(C)CCCC3)CS[C@H]12)c1csc(N)n1 [Cefepime] + CCN(CC)CCOC(=O)c1ccc(N)cc1 [Procaine]
Conditions	Bliss interaction score
[1]	-0.0573
[2]	-0.0735
[3]	0.0389
[4]	0.0421

fitness
Conditions	first compound 0.007 µg/mL	first compound 0.014 µg/mL	first compound 0.028 µg/mL	first compound 0.125 µg/mL	first compound 0.25 µg/mL	first compound 0.5 µg/mL
[5], partner 171 µg/mL	–	–	–	0.95	0.896	0.921
[6], partner 85.5 µg/mL	–	–	–	0.913	0.855	0.801
[6], partner 171 µg/mL	–	–	–	0.879	0.874	0.699
[6], partner 342 µg/mL	–	–	–	0.906	0.833	0.77
[7], partner 85.5 µg/mL	≥ 1	≥ 1	0.974	–	–	–
[7], partner 171 µg/mL	≥ 1	≥ 1	0.948	–	–	–
[7], partner 342 µg/mL	≥ 1	0.999	0.955	–	–	–

fitness, [7], one replicate
Conditions	first compound 0.0078 µg/mL	first compound 0.0155 µg/mL	first compound 0.031 µg/mL
partner 85.5 µg/mL	≥ 1	0.943	0.244
partner 171 µg/mL	≥ 1	≥ 1	0.481
partner 342 µg/mL	≥ 1	≥ 1	0.635

CO/N=C(\C(=O)N[C@@H]1C(=O)N2C(C(=O)[O-])=C(C[N+]3(C)CCCC3)CS[C@H]12)c1csc(N)n1 [Cefepime] + CN1C2=CC=CC=C2N=C3C1=CC=CC3=O [Pyocyanin]
Conditions	Bliss interaction score
[1]	-0.078
[2]	0.0752
[3]	0.0781
[4]	0.126

Conditions	fitness
[5], first compound 0.125 µg/mL, partner 1.25 µg/mL	0.854
[5], first compound 0.125 µg/mL, partner 2.5 µg/mL	0.846
[5], first compound 0.125 µg/mL, partner 5 µg/mL	0.639
[5], first compound 0.25 µg/mL, partner 1.25 µg/mL	0.837
[5], first compound 0.25 µg/mL, partner 2.5 µg/mL	0.831
[5], first compound 0.25 µg/mL, partner 5 µg/mL	0.564
[5], first compound 0.5 µg/mL, partner 1.25 µg/mL	0.786
[5], first compound 0.5 µg/mL, partner 5 µg/mL	0.571
[6], first compound 0.125 µg/mL, partner 1.25 µg/mL	0.85
[6], first compound 0.125 µg/mL, partner 2.5 µg/mL	0.819
[6], first compound 0.125 µg/mL, partner 5 µg/mL	0.56
[6], first compound 0.25 µg/mL, partner 1.25 µg/mL	0.804
[6], first compound 0.25 µg/mL, partner 2.5 µg/mL	0.783
[6], first compound 0.25 µg/mL, partner 5 µg/mL	0.508
[6], first compound 0.5 µg/mL, partner 1.25 µg/mL	0.748
[6], first compound 0.5 µg/mL, partner 2.5 µg/mL	0.702
[6], first compound 0.5 µg/mL, partner 5 µg/mL	0.535
[7], first compound 0.007 µg/mL, partner 0.325 µg/mL	≥ 1
[7], first compound 0.007 µg/mL, partner 0.65 µg/mL	≥ 1
[7], first compound 0.007 µg/mL, partner 1.3 µg/mL	0.963
[7], first compound 0.014 µg/mL, partner 0.325 µg/mL	≥ 1
[7], first compound 0.014 µg/mL, partner 0.65 µg/mL	0.997
[7], first compound 0.014 µg/mL, partner 1.3 µg/mL	0.961
[7], first compound 0.028 µg/mL, partner 0.325 µg/mL	0.946
[7], first compound 0.028 µg/mL, partner 0.65 µg/mL	0.974
[7], first compound 0.028 µg/mL, partner 1.3 µg/mL	0.943

fitness, [7], one replicate
Conditions	first compound 0.0078 µg/mL	first compound 0.0155 µg/mL	first compound 0.031 µg/mL
partner 0.325 µg/mL	≥ 1	≥ 1	0.786
partner 0.65 µg/mL	≥ 1	≥ 1	0.907

CO/N=C(\C(=O)N[C@@H]1C(=O)N2C(C(=O)[O-])=C(C[N+]3(C)CCCC3)CS[C@H]12)c1csc(N)n1 [Cefepime] + CN(N=O)C(=O)N[C@@H](C=O)[C@@H](O)[C@H](O)[C@H](O)CO [Streptozotocin]
Conditions	Bliss interaction score
[1]	-0.0779
[2]	0.0304
[3]	-0.0416
[4]	-0.0319

fitness
Conditions	first compound 0.007 µg/mL	first compound 0.014 µg/mL	first compound 0.028 µg/mL	first compound 0.125 µg/mL	first compound 0.25 µg/mL	first compound 0.5 µg/mL
[5], partner 0.15 µg/mL	–	–	–	0.789	0.705	0.721
[5], partner 0.3 µg/mL	–	–	–	0.667	0.645	0.713
[5], partner 0.6 µg/mL	–	–	–	0.589	0.588	0.61
[6], partner 0.15 µg/mL	–	–	–	0.814	0.765	0.682
[6], partner 0.3 µg/mL	–	–	–	0.717	0.641	0.66
[6], partner 0.6 µg/mL	–	–	–	0.505	0.482	0.506
[7], partner 1.2 µg/mL	0.964	0.935	0.824	–	–	–
[7], partner 2.4 µg/mL	0.987	0.993	0.923	–	–	–
[7], partner 4.8 µg/mL	0.966	0.983	0.868	–	–	–

fitness, [7], one replicate
Conditions	first compound 0.0078 µg/mL	first compound 0.0155 µg/mL	first compound 0.031 µg/mL
partner 1.2 µg/mL	0.984	0.953	0.186
partner 2.4 µg/mL	≥ 1	0.937	0.289
partner 4.8 µg/mL	0.956	0.895	0.0426

CO/N=C(\C(=O)N[C@@H]1C(=O)N2C(C(=O)[O-])=C(C[N+]3(C)CCCC3)CS[C@H]12)c1csc(N)n1 [Cefepime] + CN[C@@H]1[C@H](O)[C@H](NC)[C@H]2O[C@@]3(O)C(=O)C[C@@H](C)O[C@H]3O[C@@H]2[C@H]1O [Spectinomycin]
Conditions	Bliss interaction score
[1]	-0.0966
[2]	-0.0659
[3]	-0.0538
[4]	0.147

fitness
Conditions	first compound 0.007 µg/mL	first compound 0.014 µg/mL	first compound 0.028 µg/mL	first compound 0.125 µg/mL	first compound 0.25 µg/mL	first compound 0.5 µg/mL
[5], partner 4 µg/mL	–	–	–	0.755	0.729	0.851
[5], partner 8 µg/mL	–	–	–	0.865	0.849	0.861
[5], partner 16 µg/mL	–	–	–	0.806	0.764	0.778
[6], partner 4 µg/mL	–	–	–	0.835	0.809	0.724
[6], partner 8 µg/mL	–	–	–	0.864	0.805	0.742
[6], partner 16 µg/mL	–	–	–	0.847	0.766	0.682
[7], partner 4 µg/mL	0.935	0.935	0.877	–	–	–
[7], partner 8 µg/mL	0.943	0.974	0.873	–	–	–
[7], partner 16 µg/mL	0.916	0.918	0.876	–	–	–

fitness, one replicate
Conditions	first compound 0.0078 µg/mL	first compound 0.0155 µg/mL	first compound 0.031 µg/mL	first compound 0.125 µg/mL	first compound 0.25 µg/mL	first compound 0.5 µg/mL
[5], partner 32 µg/mL	–	–	–	0.736	0.669	0.647
[5], partner 64 µg/mL	–	–	–	0.0956	0.0736	0.0704
[6], partner 32 µg/mL	–	–	–	0.418	0.372	0.182
[6], partner 64 µg/mL	–	–	–	0.0932	0.0802	0.0762
[7], partner 4 µg/mL	≥ 1	0.988	0.577	–	–	–
[7], partner 8 µg/mL	0.999	≥ 1	0.716	–	–	–

CO/N=C(\C(=O)N[C@@H]1C(=O)N2C(C(=O)[O-])=C(C[N+]3(C)CCCC3)CS[C@H]12)c1csc(N)n1 [Cefepime] + CN[C@H](CC(C)C)C(=O)N[C@H]1C(=O)N[C@@H](CC(N)=O)C(=O)N[C@H]2C(=O)N[C@H]3C(=O)N[C@H](C(=O)N[C@H](C(=O)O)c4cc(O)cc(O)c4-c4cc3ccc4O)[C@H](O)c3ccc(c(Cl)c3)Oc3cc2cc(c3O[C@@H]2O[C@H](CO)[C@@H](O)[C@H](O)[C@H]2O[C@H]2C[C@](C)(N)[C@H](O)[C@H](C)O2)Oc2ccc(cc2Cl)[C@H]1O [Vancomycin]
Conditions	Bliss interaction score
[1]	0.0422
[2]	-0.0634
[3]	-0.154
[4]	-0.121

Conditions	fitness
[5], first compound 0.125 µg/mL, partner 0.1875 µg/mL	0.872
[5], first compound 0.125 µg/mL, partner 0.375 µg/mL	0.868
[5], first compound 0.125 µg/mL, partner 0.75 µg/mL	0.936
[5], first compound 0.25 µg/mL, partner 0.1875 µg/mL	0.917
[5], first compound 0.25 µg/mL, partner 0.375 µg/mL	0.902
[5], first compound 0.25 µg/mL, partner 0.75 µg/mL	0.885
[5], first compound 0.5 µg/mL, partner 0.1875 µg/mL	0.883
[5], first compound 0.5 µg/mL, partner 0.375 µg/mL	0.864
[5], first compound 0.5 µg/mL, partner 0.75 µg/mL	0.906
[6], first compound 0.125 µg/mL, partner 0.1875 µg/mL	0.945
[6], first compound 0.125 µg/mL, partner 0.375 µg/mL	0.946
[6], first compound 0.125 µg/mL, partner 0.75 µg/mL	0.922
[6], first compound 0.25 µg/mL, partner 0.1875 µg/mL	0.879
[6], first compound 0.25 µg/mL, partner 0.375 µg/mL	0.867
[6], first compound 0.25 µg/mL, partner 0.75 µg/mL	0.858
[6], first compound 0.5 µg/mL, partner 0.1875 µg/mL	0.791
[6], first compound 0.5 µg/mL, partner 0.375 µg/mL	0.802
[6], first compound 0.5 µg/mL, partner 0.75 µg/mL	0.774
[7], first compound 0.007 µg/mL, partner 0.125 µg/mL	0.992
[7], first compound 0.007 µg/mL, partner 0.25 µg/mL	0.807
[7], first compound 0.007 µg/mL, partner 0.5 µg/mL	0.0222
[7], first compound 0.0078 µg/mL, partner 0.03125 µg/mL	0.977
[7], first compound 0.0078 µg/mL, partner 0.0625 µg/mL	0.884
[7], first compound 0.0078 µg/mL, partner 0.125 µg/mL	0.694
[7], first compound 0.014 µg/mL, partner 0.125 µg/mL	0.944
[7], first compound 0.014 µg/mL, partner 0.5 µg/mL	0.029
[7], first compound 0.0155 µg/mL, partner 0.03125 µg/mL	0.879
[7], first compound 0.028 µg/mL, partner 0.125 µg/mL	0.585
[7], first compound 0.028 µg/mL, partner 0.5 µg/mL	0.0343
[7], first compound 0.031 µg/mL, partner 0.0625 µg/mL	0.308
[7], first compound 0.031 µg/mL, partner 0.125 µg/mL	0.269
